Literature values in US7807193B2 (priority 2002, dated 2010).

Experiments:
[1] = patients having adult onset diabetes, drug treatment therapy versus insulin treatment
ob/ob mice = settings: homozygous diabetic mouse model (ob/ob); U.S. application 20020037861 A1

Row | Structure (SMILES) | Mortality rates [1] | Levels of blood glucose, triglycerides, insulin and glycosylated hemoglobin versus control ob/ob mice not given topiramate (ob/ob mice)
1 | CN(C)C(=N)N=C(N)N [metformin] | 8% | –
2 | CC1(C)O[C@@H]2[C@@H](CO[C@@]3(COS(N)(=O)=O)OC(C)(C)O[C@@H]23)O1 [topiramate, 2,3:4,5-bis-O-(1-methylethylidene)-β-D-fructopyranose sulfamate] | – | significantly lower
